# Data as given in patent US20160176867A1, “MODIFIED BET-PROTEIN-INHIBITING DIHYDROQUINOXALINONES AND DIHYDROPYRIDOPYRAZINONES” (BAYER PHARMA AKTIENGESELLSCHAFT, priority 2013, published 2016).
# Assays:
# B16F10 cells = test: Cell proliferation assay (alamarBlue), B16F10; type: cell-based; details: Mus musculus, B16-F10; B16F10 (melanoma, BRAF wild-type), 96 hours
# Experimental: (§1) In accordance with the invention, the ability of the substances to inhibit cell proliferation was determined. Cell viability was determined by means of the alamarBlue® reagent (Invitrogen) in a Victor X3 Multilabel Reader (Perkin Elmer). The excitation wavelength was 530 nm and the emission wavelength […].
# The B16F10 cells (ATCC, CRL-6475) were sown at a concentration of 300-500 cells/well in 100 μl of growth medium (DMEM with phenol red, 10% FCS) on 96-well microtitre plates.
# (§2) After overnight incubation at 37° C., the fluorescence values were determined (CI values). Then the plates were treated with various substance dilutions (1E-5 M, 3E-6 M, 1E-6 M, 3E-7 M, 1E-7 M, 3E-8 M, 1E-8 M) and incubated at 37° C. over 96 hours (MOLM-13, B16F10, CHL-1 cells) or 120 hours (MOLP-8 cells). Subsequently, the fluorescence values were determined (CO values). For the data analysis, the CI values were subtracted from the CO values and the results were compared between cells which had been treated with various dilutions of the substance or only with buffer solution. The IC50 values (substance concentration needed for 50% inhibition of cell proliferation) were calculated therefrom.
# CHL-1 cells = test: Cell proliferation assay (alamarBlue), CHL-1; type: cell-based; details: Homo sapiens; CHL-1 (melanoma, BRAF wild-type), 96 hours
# Experimental: as §1
# The CHL-1 cells (ATCC, CRL-9446) were sown at a concentration of 1000 cells/well in 100 μl of growth medium (DMEM with glutamine, 10% FCS) on 96-well microtitre plates.
# as §2
# [1] = molecular target: T1, BRD4 bromo domain 2 [BRD4(2)] (Homo sapiens, UniProt O60885); test: BRD4/acetylated peptide H4 binding assay (TR-FRET), BRD4 bromo domain 2; details: inhibition of BRD4(2)/Ac-H4 peptide interaction
# T1 construct: N-terminally His6-tagged BRD4(2) (amino acids 357-445); made in house; host or cells: E. coli
# Outline: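 Binding of His6-BRD4(2) (aa 357-445, 100 nM final) to biotinylated tetra-acetylated H4 peptide read by TR-FRET (665/620 nm). Compound preincubated 10 min at 22 °C, then 1 h at 22 °C plus ≥3 h at 4 °C. Eleven concentrations (0.1 nM–20 μM) in duplicate; IC50 by 4-parameter fit.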
# MOLP-8 cells = test: Cell proliferation assay (alamarBlue), MOLP-8; type: cell-based; details: Homo sapiens; MOLP-8 (multiple myeloma), 120 hours
# Experimental: as §1
# The MOLP-8 cells (DSMZ, ACC 569) were sown at a concentration of 4000 cells/well in 100 μl of growth medium (RPMI1640, 20% FCS) on 96-well microtitre plates.
# as §2
smiles,measurement,setting,value
"C[C@@H]1C(=O)N(C)c2ccc(Nc3ccc4c(c3)S(=O)(=O)NC4)nc2N1C1CCOCC1 [Example 56, (3R)-6-[(1,1-dioxido-2,3-dihydro-1,2-benzothiazol-6-yl)amino]-1,3-dimethyl-4-(tetrahydro-2H-pyran-4-yl)-3,4-dihydropyrido[2,3-b]pyrazin-2(1H)-one]",IC50,B16F10 cells,488 nM
same,IC50,CHL-1 cells,181 nM
same,IC50,[1],77 nM
same,IC50,MOLP-8 cells,214 nM
"COc1ccc(S(=O)(=O)N2CCN(C)CC2)cc1Nc1ccc2c(n1)N(C1CCOCC1)[C@H](C)C(=O)N2C [Example 40, (3R)-6-({2-methoxy-5-[(4-methylpiperazin-1-yl)sulphonyl]phenyl}-amino)-1,3-dimethyl-4-(tetrahydro-2H-pyran-4-yl)-3,4-dihydropyrido[2,3-b]pyrazin-2(1H)-one]",IC50,B16F10 cells,314 nM
same,IC50,CHL-1 cells,56 nM
same,IC50,[1],52 nM
same,IC50,MOLP-8 cells,73 nM
"C[C@@H]1C(=O)N(C)c2ccc(Nc3cccc(S(=O)(=O)N4CCN(C)CC4)c3)nc2N1C1CCN(C)CC1 [Example 50, (3R)-1,3-dimethyl-6-({3-[(4-methylpiperazin-1-yl)sulphonyl]phenyl}-amino)-4-(1-methyl-piperidin-4-yl)-3,4-dihydropyrido[2,3-b]pyrazin-2(1H)-one]",IC50,B16F10 cells,727 nM
same,IC50,CHL-1 cells,118 nM
same,IC50,[1],121 nM
same,IC50,MOLP-8 cells,140 nM
"COc1ccc(S(=O)(=O)N2CC3(COC3)C2)cc1Nc1ccc2c(n1)N(C1CCOCC1)[C@H](C)C(=O)N2C [Example 30, (3R)-6-{[2-Methoxy-5-(2-oxa-6-azaspiro[3.3]hept-6-ylsulphonyl)phenyl]amino}-1,3-dimethyl-4-(tetrahydro-2H-pyran-4-yl)-3,4-dihydropyrido[2,3-b]pyrazin-2(1H)-one]",IC50,B16F10 cells,165 nM
same,IC50,CHL-1 cells,80 nM
same,IC50,[1],58 nM
same,IC50,MOLP-8 cells,96 nM
"COc1ccc(S(=O)(=O)N2CCN(C)CC2)cc1Nc1ccc2c(n1)N(C1CCN(C)CC1)[C@H](C)C(=O)N2C [Example 46, (3R)-6-({2-methoxy-5-[(4-methylpiperazin-1-yl)sulphonyl]phenyl}-amino)-1,3-dimethyl-4-(1-methylpiperidin-4-yl)-3,4-dihydropyrido[2,3-b]pyrazin-2(1H)-one]",IC50,B16F10 cells,135 nM
same,IC50,CHL-1 cells,64 nM
same,IC50,[1],69 nM
same,IC50,MOLP-8 cells,33 nM
"C[C@@H]1C(=O)N(C)c2ccc(Nc3cccc(S(=O)(=O)NC4CC4)c3)nc2N1C1CCOCC1 [Example 26, N-Cyclopropyl-3-{[(3R)-1,3-dimethyl-2-oxo-4-(tetrahydro-2H-pyran-4-yl)-1,2,3,4-tetrahydropyrido[2,3-b]pyrazin-6-yl]amino}benzenesulphonamide]",IC50,B16F10 cells,25 nM
same,IC50,CHL-1 cells,31 nM
same,IC50,[1],31 nM
same,IC50,MOLP-8 cells,24 nM
"C[C@@H]1C(=O)N(C)c2ccc(Nc3cccc(S(=O)(=O)N[C@H]4CC[C@H](N5CCN(CC6CC6)CC5)CC4)c3)nc2N1C1CCN(C(=O)OC(C)(C)C)CC1 [Example 52, tert-butyl 4-[(3R)-6-{[3-({trans-4-[4-(cyclo-propylmethyl)piperazin-1-yl]cyclohexyl}-sulphamoyl)phenyl]amino}-1,3-dimethyl-2-oxo-2,3-dihydropyrido[2,3-b]pyrazin-4(1H)-yl]piperidine-1-carboxylate]",IC50,B16F10 cells,569 nM
same,IC50,CHL-1 cells,147 nM
same,IC50,[1],86 nM
same,IC50,MOLP-8 cells,133 nM
"C[C@@H]1C(=O)N(C)c2ccc(Nc3cccc(S(=O)(=O)N(C)C)c3)nc2N1C1CCN(C)CC1 [Example 41, 3-{[(3R)-1,3-dimethyl-4-(1-methylpiperidin-4-yl)-2-oxo-1,2,3,4-tetrahydropyrido[2,3-b]pyrazin-6-yl]amino}-N,N-dimethylbenzene-sulphonamide]",IC50,B16F10 cells,52 nM
same,IC50,CHL-1 cells,21 nM
same,IC50,[1],43 nM
same,IC50,MOLP-8 cells,17 nM
"C[C@@H]1C(=O)N(C)c2ccc(N(C)c3cccc(S(=O)(=O)N(C)C)c3)nc2N1C1CCOCC1 [Example 54, 3-{[(3R)-1,3-dimethyl-2-oxo-4-(tetrahydro-2H-pyran-4-yl)-1,2,3,4-tetrahydropyrido[2,3-b]pyrazin-6-yl](methyl)-amino}-N,N-dimethyl-benzenesulphonamide]",IC50,B16F10 cells,164 nM
same,IC50,CHL-1 cells,156 nM
same,IC50,[1],62 nM
same,IC50,MOLP-8 cells,247 nM
"C[C@@H]1C(=O)N(C)c2ccc(Nc3cccc(S(=O)(=O)NC4CCN(C)CC4)c3)nc2N1C1CCCCCC1 [Example 48, 3-{[(3R)-4-cycloheptyl-1,3-dimethyl-2-oxo-1,2,3,4-tetrahydropyrido-[2,3-b]pyrazin-6-yl]amino}-N-(1-methylpiperidin-4-yl)benzenesulphonamide]",IC50,B16F10 cells,586 nM
same,IC50,CHL-1 cells,111 nM
same,IC50,[1],101 nM
same,IC50,MOLP-8 cells,197 nM
"COc1ccc(C(=O)NC2CCN(C)CC2)cc1Nc1ccc2c(n1)N(C1CCOCC1)[C@H](C)C(=O)N2C [Example 16, 3-{[(3R)-1,3-Dimethyl-2-oxo-4-(tetrahydro-2H-pyran-4-yl)-1,2,3,4-tetrahydropyrido[2,3-b]pyrazin-6-yl]amino}-4-methoxy-N-(1-methylpiperidin-4-yl)benzamide]",IC50,B16F10 cells,1140 nM
same,IC50,CHL-1 cells,346 nM
same,IC50,[1],174 nM
same,IC50,MOLP-8 cells,306 nM
"C[C@@H]1C(=O)N(C)c2ccc(Nc3cccc(S(=O)(=O)N[C@H]4CC[C@H](N5CCN(CC6CC6)CC5)CC4)c3)nc2N1Cc1ccccc1 [Example 38, 3-{[(3R)-4-benzyl-1,3-dimethyl-2-oxo-1,2,3,4-tetrahydropyrido[2,3-b]pyrazin-6-yl]amino}-N-{trans-4-[4-(cyclopropyl-methyl)piperazin-1-yl]cyclohexyl}-benzenesulphonamide]",IC50,B16F10 cells,190 nM
same,IC50,CHL-1 cells,19 nM
same,IC50,[1],48 nM
same,IC50,MOLP-8 cells,12 nM
"C[C@@H]1C(=O)N(C)c2ccc(Nc3cccc(S(=O)(=O)NC4CCN(C)CC4)c3)nc2N1C1CCNCC1 [Example 124, 3-{[(3R)-1,3-dimethyl-2-oxo-4-(piperidin-4-yl)-1,2,3,4-tetrahydropyrido[2,3-b]pyrazin-6-yl]amino}-N-(1-methylpiperidin-4-yl)benzenesulphonamide]",IC50,B16F10 cells,> 20000 nM
same,IC50,CHL-1 cells,> 20000 nM
same,IC50,[1],46 nM
same,IC50,MOLP-8 cells,> 20000 nM
"C[C@@H]1C(=O)N(C)c2ccc(Nc3cccc(S(=O)(=O)N[C@H]4CC[C@H](N5CCN(CC6CC6)CC5)CC4)c3)nc2N1C1CCNCC1 [Example 127, N-{trans-4-[4-(cyclopropylmethyl)piperazin-1-yl]cyclohexyl}-3-{[(3R)-1,3-dimethyl-2-oxo-4-(piperidin-4-yl)-1,2,3,4-tetrahydropyrido[2,3-b]pyrazin-6-yl]amino}-benzenesulphonamide]",IC50,B16F10 cells,> 20000 nM
same,IC50,CHL-1 cells,> 20000 nM
same,IC50,[1],90 nM
same,IC50,MOLP-8 cells,> 10000 nM
C[C@@H]1C(=O)N(C)c2ccc(Nc3cccc(S(=O)(=O)NCCN(C)C)c3)nc2N1C1CCOCC1 [Example 21],IC50,B16F10 cells,626 nM
same,IC50,[1],53 nM
same,IC50,MOLP-8 cells,175 nM
"C[C@@H]1C(=O)N(C)c2ccc(Nc3cccc(C(=O)N4CCN(C)CC4)c3)nc2N1C1CCOCC1 [Example 15, (3R)-1,3-Dimethyl-6-({3-[(4-methylpiperazin-1-yl)carbonyl]phenyl}amino)-4-(tetrahydro-2H-pyran-4-yl)-3,4-dihydropyrido[2,3-b]pyrazin-2(1H)-one]",IC50,B16F10 cells,1080 nM
same,IC50,[1],196 nM
same,IC50,MOLP-8 cells,313 nM
"C[C@@H]1C(=O)N(C)c2ccc(Nc3cccc(C(=O)N[C@H]4CC[C@H](N5CCN(CC6CC6)CC5)CC4)c3)nc2N1C1CCOCC1 [Example 14, N-{trans-4-[4-(Cyclopropylmethyl)piperazin-1-yl]cyclohexyl}-3-{[(3R)-1,3-dimethyl-2-oxo-4-(tetrahydro-2H-pyran-4-yl)-1,2,3,4-tetrahydropyrido[2,3-b]pyrazin-6-yl]amino}benzamide]",IC50,B16F10 cells,809 nM
same,IC50,[1],170 nM
same,IC50,MOLP-8 cells,240 nM
"C[C@@H]1C(=O)N(C)c2ccc(Nc3cccc(C(=O)N4CCN(C)CC4)c3)nc2N1C1CCCC1 [Example 1, (3R)-4-Cyclopentyl-1,3-dimethyl-6-({3-[(4-methylpiperazin-1-yl)carbonyl]phenyl}amino)-3,4-dihydropyrido[2,3-b]pyrazin-2(1H)-one]",IC50,B16F10 cells,661 nM
same,IC50,[1],55 nM
same,IC50,MOLP-8 cells,337 nM
"C[C@@H]1C(=O)N(C)c2ccc(Nc3cccc(S(=O)(=O)N(C)C)c3)nc2N1C1CCOCC1 [Example 6, 3-{[(3R)-1,3-Dimethyl-2-oxo-4-(tetrahydro-2H-pyran-4-yl)-1,2,3,4-tetrahydropyrido[2,3-b]pyrazin-6-yl]amino}-N,N-dimethylbenzenesulphonamide]",IC50,B16F10 cells,71 nM
same,IC50,[1],32 nM
same,IC50,MOLP-8 cells,37 nM
